From paper PMC5590943, “Pharmacological characterisation of S 47445, a novel positive allosteric modulator of AMPA receptors” (PLoS ONE, 2017)

What was measured:
Human AMPA receptors = test: AMPA-evoked currents, Xenopus laevis oocytes injected with human hippocampal poly(A+) mRNA; format: cell-based; conditions: for Emax (fold increase): maximal potentiation, mean ± SEM; for EC2X: concentration giving a two-fold increase in current amplitude; for EC2X / EC50: geometric mean; for EC50: potentiation of 10 μM AMPA-evoked current
Experimental: (§1) Compounds were tested by bath application.

Rat AMPA receptors = test: AMPA-evoked currents, Xenopus laevis oocytes injected with rat cortex poly(A+) mRNA (two-electrode voltage clamp); format: cell-based; conditions: for Emax (fold increase): maximal potentiation, mean ± SEM; for EC2X: concentration giving a two-fold increase in current amplitude; for EC2X / EC50: geometric mean; for EC50: potentiation of 10 μM AMPA-evoked current
Experimental: as §1

[1] = target: T1, GluA1flop/GluA2flip AMPA receptors (Homo sapiens, UniProt P42261+P42262, Q607R); test: 10 μM glutamate-evoked currents in Xenopus laevis oocytes expressing GluA1flop/GluA2flip (repetitive pulses, GYKI52466); format: cell-based; conditions: GYKI52466 10 to 1000 μM; 10 μM glutamate
T1 construct: host or cells: Xenopus laevis oocytes
Experimental: as §1
To test the inhibition, the selective AMPA receptor antagonist GYKI52446 was used from 10 to 1000 μM on the potentiation caused by S 47445 (1 μM).
EC50 were determined either using Matlab (Mathworks inc., Natick, USA) or SAS v9.2 (SAS Institute inc., Cary, USA) softwares. To have a comparative value between the tested drugs when EC50 could not be determined (absence of plateau at high concentrations), the EC2X was determined. EC2X corresponds to the concentrations of the drug responsible for a two-fold increase in the amplitude of the current.

[2] = tested on: isolated prefrontal cortex pyramidal neurons; design: method as in PMID 9221774, PMID 11408529; conditions: patch-clamp; cited from earlier work
[3] = tested on: rat primary cortical cell cultures; test: LDH release toxicity assay on rat primary cortical cell cultures; conditions: MK801 1 μM; data not shown
GluA3flop receptors = tested on: GluA3flop receptors; design: method as in PMID 9221774, PMID 11408529; conditions: Xenopus oocytes; cited from earlier work

T1 sequence (P42261 19-906): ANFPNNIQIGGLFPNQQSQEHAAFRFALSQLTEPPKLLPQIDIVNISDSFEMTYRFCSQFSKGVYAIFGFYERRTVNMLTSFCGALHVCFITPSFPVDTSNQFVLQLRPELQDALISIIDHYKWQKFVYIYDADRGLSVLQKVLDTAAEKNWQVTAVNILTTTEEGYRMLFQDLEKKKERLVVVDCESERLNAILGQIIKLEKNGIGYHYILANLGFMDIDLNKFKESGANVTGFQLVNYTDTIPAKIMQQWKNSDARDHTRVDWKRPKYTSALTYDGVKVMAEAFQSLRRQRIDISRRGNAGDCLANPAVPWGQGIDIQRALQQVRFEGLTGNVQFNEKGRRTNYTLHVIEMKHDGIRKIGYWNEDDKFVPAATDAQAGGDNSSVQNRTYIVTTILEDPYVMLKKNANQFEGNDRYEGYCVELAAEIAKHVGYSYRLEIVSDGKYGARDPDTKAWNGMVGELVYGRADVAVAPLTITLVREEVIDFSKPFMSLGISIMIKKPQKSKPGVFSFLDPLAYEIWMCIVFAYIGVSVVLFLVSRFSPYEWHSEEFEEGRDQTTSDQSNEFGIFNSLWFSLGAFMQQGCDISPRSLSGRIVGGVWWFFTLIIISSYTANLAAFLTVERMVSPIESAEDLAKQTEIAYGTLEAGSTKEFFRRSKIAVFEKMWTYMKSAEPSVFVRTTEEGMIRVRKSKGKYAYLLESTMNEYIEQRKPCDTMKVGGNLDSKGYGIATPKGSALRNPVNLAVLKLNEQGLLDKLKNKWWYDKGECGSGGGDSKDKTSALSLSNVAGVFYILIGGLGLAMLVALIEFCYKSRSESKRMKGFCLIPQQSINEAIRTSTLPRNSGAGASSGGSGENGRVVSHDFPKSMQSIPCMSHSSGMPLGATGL
T1 sequence (P42262 22-883 isoform P42262-2 Q607R limits assumed): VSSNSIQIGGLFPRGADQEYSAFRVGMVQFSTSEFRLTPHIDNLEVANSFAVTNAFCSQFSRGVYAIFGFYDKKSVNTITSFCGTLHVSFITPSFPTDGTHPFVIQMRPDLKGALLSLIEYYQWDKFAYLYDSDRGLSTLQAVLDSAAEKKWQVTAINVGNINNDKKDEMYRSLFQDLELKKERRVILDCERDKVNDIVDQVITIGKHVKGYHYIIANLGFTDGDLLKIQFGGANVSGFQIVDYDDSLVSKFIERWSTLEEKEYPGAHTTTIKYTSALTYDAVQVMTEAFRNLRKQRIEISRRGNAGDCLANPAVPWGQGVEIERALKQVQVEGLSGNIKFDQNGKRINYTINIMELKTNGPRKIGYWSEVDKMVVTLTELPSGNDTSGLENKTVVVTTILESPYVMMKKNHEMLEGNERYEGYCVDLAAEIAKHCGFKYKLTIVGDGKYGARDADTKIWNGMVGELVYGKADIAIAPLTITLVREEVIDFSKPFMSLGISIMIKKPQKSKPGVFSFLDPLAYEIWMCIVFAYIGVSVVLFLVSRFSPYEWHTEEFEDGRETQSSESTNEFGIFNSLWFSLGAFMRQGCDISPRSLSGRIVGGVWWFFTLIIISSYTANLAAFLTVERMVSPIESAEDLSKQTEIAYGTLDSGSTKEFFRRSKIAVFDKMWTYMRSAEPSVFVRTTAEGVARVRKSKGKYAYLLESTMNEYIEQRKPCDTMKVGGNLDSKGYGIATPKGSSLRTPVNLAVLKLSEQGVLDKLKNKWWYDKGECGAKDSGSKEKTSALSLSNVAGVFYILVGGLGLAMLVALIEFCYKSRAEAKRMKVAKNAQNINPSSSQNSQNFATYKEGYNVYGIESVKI

## O=C(c1ccc2nccnc2c1)N1CCCCC1 [CX516]
Human AMPA receptors
  Emax (fold increase): 3.13 fold increase
Rat AMPA receptors
  Emax (fold increase): 1.72 ± 0.1 fold increase

## O=C1c2cc3c(cc2OC2CCCN12)OCCO3 (centres unmarked) [CX614]
Human AMPA receptors
  EC2X: 0.88 µM
  Emax (fold increase): 23.43 ± 2.32 fold increase
  EC50: 11.4 µM
Rat AMPA receptors
  EC2X: 1.03 µM
  Emax (fold increase): 30.32 ± 5.67 fold increase
  EC50: 17.3 µM

## NS(=O)(=O)c1cc2c(cc1Cl)NC(C1CC3C=CC1C3)NS2(=O)=O (centres unmarked) [Cyclothiazide]
Human AMPA receptors
  EC2X: 1.54 µM
  Emax (fold increase): 9.40 ± 2.61 fold increase
  EC50: 9.33 µM
Rat AMPA receptors
  EC2X: 1.68 µM
  Emax (fold increase): 8.86 ± 0.79 fold increase
  EC50: 8.83 µM

## CC1=NN=C(c2ccc(N)cc2)c2cc3c(cc2C1)OCO3.Cl.Cl [GYKI52466, 4-(8-Methyl-9H-1,3-dioxolo[4,5-h][2,3]benzodiazepin-5-yl)-benzenamine dihydrochloride, reference compound]
[1]
  Effect on the potentiation caused by S 47445 (1 μM): concentration-dependently reversed

## CC(CNS(=O)(=O)C(C)C)c1ccc(-c2ccsc2)cc1 (centres unmarked) [LY392098]
[2]
  Increase of agonist potency: approximately 7 fold

## CC(CNS(=O)(=O)C(C)C)c1ccc(-c2ccc(C#N)cc2)cc1 (centres unmarked) [LY404187]
Human AMPA receptors
  EC2X: 0.37 µM
  Emax (fold increase): 29.67 ± 2.67 fold increase
  EC50: 4.64 µM
Rat AMPA receptors
  EC2X: 0.32 µM
  Emax (fold increase): 16.40 ± 2.22 fold increase
  EC50: 3.01 µM

## CC(C)S(=O)(=O)NC[C@H](C)c1ccc(-c2ccc(CCNS(C)(=O)=O)cc2)cc1 [LY451395]
Rat AMPA receptors
  EC2X: 0.04 µM
  Emax (fold increase): 14.03± 0.70 fold increase
  EC50: 0.37 µM

## C[C@]12N[C@H](Cc3ccccc31)c1ccccc12 [MK801, reference compound]
[3]
  Effect on 100 μM glutamate-mediated toxicity: completely reversed

## NC(=O)COc1c(F)cc(SCCNS(=O)(=O)c2ccccc2)cc1F [PEPA, 4-[2-(Phenylsulfonylamino)ethylthio]-2,6-Difluoro-Phenoxyacetamide]
GluA3flop receptors
  Increase of agonist potency: approximately 7 fold

## O=S1(=O)N[C@H]2CCCN2c2ccccc21 [S 18986]
Human AMPA receptors
  EC2X: 16.88 µM
  Emax (fold increase): 14.51 ± 1.53 fold increase
Rat AMPA receptors
  EC2X: 23.77 µM
  Emax (fold increase): 15.37 ± 2.21 fold increase
  EC50: 125 µM
